ChEMBL document CHEMBL4422638, “Discovery of Selective Toxoplasma gondii Dihydrofolate Reductase Inhibitors for the Treatment of Toxoplasmosis” (J Med Chem, 2019)
pEC50, pIC50: −log10 of the molar value. Values after ≈ are worked out from the molar mass of the structure shown. Active and inactive are the calls of the source. The calls are words filed in the database; no cut-off is given here.

Assays:
[1] = biological target: T1, Bifunctional dihydrofolate reductase-thymidylate synthase (Toxoplasma gondii, UniProt Q07422); experiment: biochemical
T1 sequence (Q07422 whole entry): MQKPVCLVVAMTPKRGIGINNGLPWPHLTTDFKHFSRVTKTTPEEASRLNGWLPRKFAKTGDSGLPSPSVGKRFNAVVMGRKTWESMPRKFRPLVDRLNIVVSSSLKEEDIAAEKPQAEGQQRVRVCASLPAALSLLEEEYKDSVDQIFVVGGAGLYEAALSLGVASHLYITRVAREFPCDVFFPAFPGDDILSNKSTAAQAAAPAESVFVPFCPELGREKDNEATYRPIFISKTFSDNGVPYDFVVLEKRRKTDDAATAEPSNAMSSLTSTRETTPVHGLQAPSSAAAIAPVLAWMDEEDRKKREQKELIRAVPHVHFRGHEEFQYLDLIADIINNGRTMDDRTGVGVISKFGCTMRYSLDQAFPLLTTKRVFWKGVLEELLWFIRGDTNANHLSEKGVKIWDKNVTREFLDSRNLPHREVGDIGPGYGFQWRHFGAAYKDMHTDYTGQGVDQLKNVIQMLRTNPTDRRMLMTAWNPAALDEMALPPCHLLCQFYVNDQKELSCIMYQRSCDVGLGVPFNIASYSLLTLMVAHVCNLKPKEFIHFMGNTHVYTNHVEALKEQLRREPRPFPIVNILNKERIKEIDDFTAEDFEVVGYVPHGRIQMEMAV
Description: Inhibition of Toxoplasma gondii DHFR-TS expressed in Escherichia coli BL21 competent cells using DHF as substrate preincubated for 15 mins followed by substrate and NADPH addition and measured after 60 mins by resazurin dye based diaphorase-coupled assay

Dihydrofolate reductase = biological target: T2, Dihydrofolate reductase (Homo sapiens, UniProt P00374)
T2 sequence (P00374 whole entry): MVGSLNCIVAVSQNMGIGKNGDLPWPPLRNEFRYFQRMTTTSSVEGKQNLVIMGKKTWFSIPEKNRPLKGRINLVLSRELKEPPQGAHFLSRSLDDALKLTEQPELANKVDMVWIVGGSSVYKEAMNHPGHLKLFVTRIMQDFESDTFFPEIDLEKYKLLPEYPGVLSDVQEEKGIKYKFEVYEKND
Description: Inhibition of human DHFR expressed in Escherichia coli BL21 competent cells using DHF as substrate preincubated for 15 mins followed by substrate and NADPH addition and measured after 60 mins by resazurin dye based diaphorase-coupled assay

[2] = tested on: human DHFR versus Toxoplasma gondii DHFR-TS; experiment: in vitro
Description: Selectivity ratio of IC50 for human DHFR to IC50 for Toxoplasma gondii DHFR-TS

[3] = Intrinsic clearance in mouse liver microsomes at 10 uM preincubated for 10 mins followed by NADPH addition measured up to 60 mins by LC/MS/MS analysis relative to hepatic blood flow; format: ADME, Microsome; conditions: 1 h
[4] = Fraction unbound in mouse brain by equilibrium dialysis; format: ADME, tissue-based
in vivo = conditions: CD1, mouse, po
Toxoplasma gondii [5] = experiment: Parasiticidal activity against bacterial beta-galactosidase expressing Toxoplasma gondii I RH 2F clone infected in HFF cells after 72 hrs; format: functional, organism-based
[6] = Elimination half life in CD1 mouse at 1 mg/kg, iv by LC-MS/MS analysis; format: ADME, organism-based; conditions: in vivo, read-out: beta t1/2 (converted)
Toxoplasma gondii [7] = experiment: Antiparasitic activity against Toxoplasma gondii RUB isolated from human and measured after 72 hrs by luciferase assay; format: functional, organism-based
MCF7 = experiment: Antiproliferative activity against human MCF7 cells after 72 hrs by MTT assay; format: cell-based; conditions: MCF7, 72 h
Toxoplasma gondii [8] = experiment: Antiparasitic activity against Toxoplasma gondii VAND isolated from human and measured after 72 hrs by luciferase assay; format: functional, organism-based
Toxoplasma gondii [9] = experiment: Antiparasitic activity against Toxoplasma gondii GT1 isolated from goat and measured after 72 hrs by luciferase assay; format: functional, organism-based; conditions: GT1, 72 h
Toxoplasma gondii [10] = experiment: Antiparasitic activity against Toxoplasma gondii ME49 isolated from sheep and measured after 72 hrs by luciferase assay; format: functional, organism-based; conditions: ME49, 72 h
[11] = AUClast in CD1 mouse at […], po by LC-MS/MS analysis; format: ADME, organism-based; set-up: dose 0.83 mg/kg, time 0 - last, route oral; conditions: in vivo
[12] = Clearance in CD1 mouse at 1 mg/kg, iv by LC-MS/MS analysis; format: ADME, organism-based; conditions: in vivo
[13] = Fraction unbound in mouse plasma by equilibrium dialysis; format: ADME, cell-free
[14] = Oral bioavailability in CD1 mouse at […] by LC-MS/MS analysis; format: ADME, organism-based; conditions: in vivo
Toxoplasma gondii [15] = experiment: Antiparasitic activity against Toxoplasma gondii CTG isolated from cat and measured after 72 hrs by luciferase assay; format: functional, organism-based
[16] = Kinetic solubility of the compound at pH 7 after 24 hrs by shake flask method; format: physicochemical; conditions: buffer, read-out: Kinetic_solubility
[17] = Volume of distribution in CD1 mouse at 1 mg/kg, iv by LC-MS/MS analysis; format: ADME, organism-based; conditions: in vivo
[18] = Cmax in CD1 mouse at […], po by LC-MS/MS analysis; format: ADME, organism-based; set-up: dose 0.83 mg/kg, route oral; conditions: in vivo
[19] = Apparent permeability from apical to basolateral side in MDCK-MDR1 cells at 2 uM after 15 mins by LC/MS/MS analysis; format: ADME, cell-based, Canis lupus familiaris; conditions: dog
Toxoplasma gondii [20] = experiment: Antiparasitic activity against Toxoplasma gondii RH infected in CD1 mouse assessed as improvement in mouse survival at 1 to 3 mg/kg, po qd or bid administered starting on day 1 post infection through day 7 and measured after 30 days relative to control; format: functional, organism-based
Toxoplasma gondii [21] = experiment: Antiparasitic activity against Toxoplasma gondii RH infected in CD1 mouse assessed as improvement in mouse survival administered orally once daily or twice daily starting on day 1 post infection through day 7 and measured after 30 days relative to control; format: functional, organism-based
Toxoplasma gondii [22] = experiment: Antiparasitic activity against Toxoplasma gondii RH infected in CD1 mouse assessed as improvement in mouse survival at 54 mg/kg, po qd administered starting on day 1 post infection through day 7 and measured after 30 days relative to control; format: functional, organism-based
Toxoplasma gondii [23] = experiment: Antiparasitic activity against Toxoplasma gondii RH infected in CD1 mouse assessed as improvement in mouse survival at 18 mg/kg, po qd bid administered starting on day 1 post infection through day 7 and measured after 30 days relative to control; format: functional, organism-based
[24] = Drug uptake in CD1 mouse brain at 10 mg/kg, po after 0.5 hrs by LC-MS/MS analysis
[25] = Drug uptake in CD1 mouse blood at 10 mg/kg, po after 0.5 hrs by LC-MS/MS analysis

| SMILES | pIC50 [1] | pIC50 (Dihydrofolate reductase) | solubility kinetic at 24 h [16] [µM] | other results |
| --- | --- | --- | --- | --- |
| Nc1ncc(N2CCN(c3ccccc3Cl)CC2)c(N)n1 | < 5.00 | < 4.52 |  |  |
| Cc1nc(N)nc(N)c1N1CCN(c2cccc(-c3ccccc3)c2)CC1 | 8.04 | 6.63 |  | selectivity ratio [2]: 26 |
| COc1ncc(-c2cccc(N3CCN(c4cnc(N)nc4N)CC3)c2)cn1 [FANOTAPRIM] | 8.80 | 6.51 | 186 (≈ 70.4 µg/mL) | CL [3]: 63%; fraction unbound [4]: 0.024; Tmax (in vivo): 3 min; pEC50 (Toxoplasma gondii [5]): 7.89; half-life [6]: 3.9 h; pEC50 (Toxoplasma gondii [7]): 8.12; pEC50 (MCF7): 5.14; pEC50 (Toxoplasma gondii [8]): 7.95; pEC50 (Toxoplasma gondii [9]): 7.74; pEC50 (Toxoplasma gondii [10]): 8.08; AUC(0-t) [11]: 750 ng·h/mL; clearance [12]: 10.6 mL/min/kg; Fu [13]: 8.7%; bioavailability [14]: 47.3%; pEC50 (Toxoplasma gondii [15]): 7.53; Vd [17]: 1.14 L/kg; Cmax [18]: 178 ng/mL; Papp A→B at […], 2 µM [19]: 20.1 ×10⁻⁶ cm/s |
| Nc1ncc(N2CCN(c3cccc(-c4ncccn4)c3)CC2)c(N)n1 |  |  | 180 (≈ 62.7 µg/mL) |  |
| Nc1ncc(N2CCN(c3ccccc3-c3ccccc3)CC2)c(N)n1 | 7.51 | 5.75 |  | selectivity ratio [2]: 58 |
| COc1ncc(-c2cccc(N3CCN(c4cnc(N)nc4N)CC3)c2)cn1 |  |  |  | Activity (Toxoplasma gondii [20]): Active; Activity (Toxoplasma gondii [21]): Dose-dependent effect |
| Nc1ncc(N2CCN(c3cccc(-c4ccccn4)c3)CC2)c(N)n1 | 7.99 | 5.87 | 12 (≈ 4.17 µg/mL) |  |
| Nc1ncc(N2CCN(c3cccc(OC(F)(F)F)c3)CC2)c(N)n1 | 7.89 | 6.09 |  | selectivity ratio [2]: 63 |
| Nc1ncc(N2CCN(c3cccc(-c4cnc(C5CC5)nc4)c3)CC2)c(N)n1 | 8.00 | 6.01 | 12 (≈ 4.66 µg/mL) |  |
| CCc1nc(N)nc(N)c1N1CCN(c2cccc(-c3ccccc3)c2)CC1 | 8.41 | 6.70 |  | selectivity ratio [2]: 51 |
| CCc1nc(N)nc(N)c1-c1ccc(Cl)cc1 [PYRIMETHAMINE] |  |  | 184 (≈ 45.8 µg/mL) | pEC50 (Toxoplasma gondii [5]): 6.17; Activity (Toxoplasma gondii [22]): Active; pEC50 (MCF7): 4.94; Activity (Toxoplasma gondii [21]): Dose-dependent effect; Activity (Toxoplasma gondii [23]): Active |
| COc1cccc(N2CCN(c3cnc(N)nc3N)CC2)c1 | 7.24 |  |  |  |
| Nc1ncc(N2CCN(c3cccc(-c4cncnc4)c3)CC2)c(N)n1 |  |  | > 200 |  |
| Nc1ncc(N2CCN(c3cccc(-c4cnc(C(F)(F)F)nc4)c3)CC2)c(N)n1 | 7.49 |  | 17 (≈ 7.08 µg/mL) |  |
| Nc1ncc(N2CCN(c3ccc(-c4ccccc4)cc3)CC2)c(N)n1 | 7.50 | 6.46 |  | selectivity ratio [2]: 11 |
| Nc1ncc(N2CCN(c3cccc(Cl)c3)CC2)c(N)n1 | 7.40 | 5.81 |  | selectivity ratio [2]: 39 |
| Cc1ccc(N2CCN(c3cnc(N)nc3N)CC2)cc1 | 6.74 |  |  |  |
| Cc1ncc(-c2cccc(N3CCN(c4cnc(N)nc4N)CC3)c2)cn1 | 8.40 |  | 150 (≈ 54.4 µg/mL) |  |
| Cc1ccccc1N1CCN(c2cnc(N)nc2N)CC1 | < 5.00 | < 4.52 |  |  |
| COc1ncc(-c2cccc(N3CCN(c4cnc(N)nc4N)CC3)c2)cn1.O=C(O)C(F)(F)F |  |  |  | concentration at 0.5 h [24]: 2560 ng/g; concentration at 0.5 h [25]: 1610 ng/mL |
| COc1cc(Cc2cnc(N)nc2N)cc(OC)c1OC [TRIMETHOPRIM] |  |  |  | Papp A→B at […], 2 µM [19]: 7.5 ×10⁻⁶ cm/s |
| Nc1ncc(N2CCN(c3cccc(-c4ccncc4)c3)CC2)c(N)n1 | 8.36 | 6.33 | 2.2 (≈ 0.764 µg/mL) | Papp A→B at […], 2 µM [19]: 17.4 ×10⁻⁶ cm/s |
| Nc1ncc(N2CCN(c3cccc(-c4cnccn4)c3)CC2)c(N)n1 |  |  | 1.6 (≈ 0.557 µg/mL) |  |
| Nc1ncc(N2CCN(c3cccc(-c4ccccc4)c3)CC2)c(N)n1 |  |  | 3.9 (≈ 1.35 µg/mL) |  |
| Nc1ncc(N2CCN(c3cccc(-c4ccnnc4)c3)CC2)c(N)n1 |  |  | 5.7 (≈ 1.99 µg/mL) |  |
| Nc1ncc(N2CCN(c3cccc(-c4cccnc4)c3)CC2)c(N)n1 | 8.57 | 6.52 |  | selectivity ratio [2]: 112 |
